Read-outs that look alike come from different tables or passages of the source.
Legend:
[1] = Phase 1 single ascending dose (SAD) pharmacokinetics in healthy volunteers; type: in vivo, human; details: for half-life / Tmax / Cmax / AUC(0-t) / AUC: male, human, plasma, oral; for Tmax: read-out: Tmax; for Cmax: plasma total, read-out: Cmax; for AUC(0-t) / AUC: geometric mean; for AUC: read-out: AUC
Experimental: (§1) Study design: A phase 1, randomized, double blind, placebo-controlled, single-center clinical study in 33 male healthy volunteers (HV) (19-54 years, 63.2-95.7 Kg) was conducted with leriglitazone HCl and divided in two parts: a single ascending dose (SAD) with three dose levels (30, 90 and 270 mg) in fasted conditions, followed with two dose levels (90 and 270 mg) in fed conditions; a multiple ascending dose (MAD) with a double-blind, parallel-design with two dose levels (135 and 270 mg) for 8 days and a separate cohort of subjects in an open-label parallel design with two dose levels (135 and 270 mg) including cerebrospinal fluid (CSF) collection on day 8. In the fasted conditions a fasting period of at least 4 hours was required before obtaining plasma samples. The food effect (FE) was assessed by comparing fasted with fed conditions (dosing after a high-fat breakfast per FDA definition with a calculated caloric content of 918 kcal). In the MAD part (fed) the medication was taken before a normal breakfast. Leriglitazone HCl was supplied by ChemConnection and an oral suspension of leriglitazone (20% w/v kleptose, 2% ethanol in 100 mM phosphate buffer pH=7.8) at 6 mg/ml was used in the study.
(§2) Blood, Urine and CSF sampling: In the SAD, blood samples were drawn at the following time points: pre-dose and 0.25, 0.5, 0.75, 1, 1.5, 2, 2.5, 3, 4, 5, 6, 8, 10, 12, 16, 24, 36, 48, 72, 96 and 120 hours post-dose. Urine was collected at pre-dose (within 12 hours prior to dosing) and over 0-6, 6-12, 12-24, 24-36, 36-48 hours post-dose collection intervals. In the MAD, blood samples were collected on day 1 at pre-dose and 0.25, 0.5, 0.75, 1, 1.5, 2, 2.5, 3, 4, 5, 6, 8, 10, 12, and 16 hours post-dose and at pre-dose and at 4 hours post-dose on day 2 to day 7, and on day 8 at pre-dose and 0.25, 0.5, 0.75, 1, 1.5, 2, 2.5, 3, 4, 5, 6, 8, 10, 12, 16, 24, 36, 48, 72, 96 and 120 hours post-dose. CSF were taken on day −1 and on day 8, at 4 hours post-dose.
(§3) Pharmacokinetic parameter calculation: PK parameters (Cmax, Tmax, t1/2, AUC0-t, CL/F, Vz/F, AUC0-t, RAUC, RCmax) were estimated using non-compartmental analysis (NCA) (Phoenix WinNonlin® Version 6.3).
(§4) Statistical analysis: Descriptive statistics for all relevant PK parameters: n, mean, minimum, median, maximum, geometric mean, and coefficient of variation (CV %); analysis of variance on Cmax and AUC to determine dose proportionality and food effect (FE).

[2] = Phase 1 multiple ascending dose (MAD) pharmacokinetics with CSF collection in healthy volunteers; type: in vivo, human; details: for accumulation RCmax: day 8 vs day 1; for Kp at 4 h / concentration at 4 h / Tmax / Vd/F / Cmax: male, human, oral; for Kp at 4 h: CSF and plasma; for Tmax: Median, read-out: Tmax; for Vd/F: read-out: Vz/F; for Cmax: plasma total, geometric mean, read-out: Cmax
Experimental: as §1, §2, §3, §4
The ratio of unbound leriglitazone concentration in brain to unbound concentration in plasma (Kpu,u; Cb,u/Cp,u) was calculated dividing the unbound CSF Cmax by the unbound plasma Cmax. Fractions unbound in plasma (fu,p) to obtain the unbound Cmax values were already reported. Rodriguez-Pascau, L. et al., Sci. Transl. Med. 13, eabc0555 (2021).

[3] = plasma, 135 mg, 135 mg MD Day 1, n = 8
[4] = plasma, 135 mg, 135 mg MD Day 8, n = 8
[5] = plasma, 270 mg, 270 mg MD Day 1, n = 8
[6] = plasma, 270 mg, 270 mg MD Day 8, n = 7

For CC(=O)c1ccc(CCOc2ccc(CC3SC(=O)NC3=O)cc2)nc1 (stereo not shown) [Compound M3, 5-[[4-[2-[5-acetylpyridin-2-yl]ethoxy]phenyl]methyl]-1,3-thiazolidine-2,4-dione], the “dose excreted in urine as free analyte” value ([1]; 48-hour collection period) was under 0.01%, the “dose excreted in urine as the analyte, mostly in a conjugated state” value ([1]; 48-hour collection period) was 0.3% and the half-life ([1]; 30 mg, M3 section, SAD 30 mg fasted, n = 6, geometric mean (CV %), read-out: t1/2 (converted)) was 22.1 h. It also gave a Tmax ([1]; 30 mg, SAD 30 mg fasted, n = 6, Median) of 0.63 h, a Cmax ([1]; 30 mg, SAD 30 mg fasted, n = 6, geometric mean (CV %)) of 0.828 µg/mL and a half-life ([1]; 90 mg, M3 section, SAD 90 mg fasted, n = 6, geometric mean (CV %), read-out: t1/2 (converted)) of 23.2 h. It also gave a half-life ([1]; 90 mg, M3 section, SAD 90 mg fed, n = 3, geometric mean (CV %), read-out: t1/2 (converted)) of 25.7 h, a Tmax ([1]; 90 mg, SAD 90 mg fasted, n = 6, Median) of 0.63 h and an AUC(0-t) ([1]; 90 mg, SAD 90 mg fasted, n = 6) of 59.4 µg·h/mL. For the same compound, the AUC ([1]; 90 mg, SAD 90 mg fasted, n = 6) was 61.8 µg·h/mL, the Cmax ([1]; 90 mg, SAD 90 mg fasted, n = 6, geometric mean (CV %)) was 2.55 µg/mL and the Tmax ([1]; 90 mg, SAD 90 mg fed, n = 3, Median) was 5 h. The AUC(0-t) ([1]; 90 mg, SAD 90 mg fed, n = 3) was 59.9 µg·h/mL, the AUC ([1]; 90 mg, SAD 90 mg fed, n = 3) was 62.2 µg·h/mL and the Cmax ([1]; 90 mg, SAD 90 mg fed, n = 3, geometric mean (CV %)) was 1.98 µg/mL. The half-life ([1]; 270 mg, M3 section, SAD 270 mg fasted, n = 5, geometric mean (CV %), read-out: t1/2 (converted)) was 21.6 h, the half-life ([1]; 270 mg, M3 section, SAD 270 mg fed, n = 5, geometric mean (CV %), read-out: t1/2 (converted)) was 22.7 h and the Tmax ([1]; 270 mg, SAD 270 mg fasted, n = 5, Median) was 1.5 h. It also gave a Tmax ([1]; 270 mg, SAD 270 mg fed, n = 5, Median) of 4 h, an AUC(0-t) ([1]; 270 mg, SAD 270 mg fed, n = 5) of 155 µg·h/mL and an AUC ([1]; 270 mg, SAD 270 mg fed, n = 5) of 159 µg·h/mL. For the same compound, the Cmax ([1]; 270 mg, SAD 270 mg fed, n = 5, geometric mean (CV %)) was 5.32 µg/mL, the Tmax ([1]; 270 mg, SAD fed conditions, 90 and 270 mg) was 3 to 6 h and the half-life ([1]; SAD, read-out: Half-lives) was 22 to 23 h. The CL/F ([2]; 135 mg MD Day 1, n = 8, geometric mean (CV %)) was 3.69 (29.4) L./h, the CL/F ([2]; 135 mg MD Day 8, n = 8, geometric mean (CV %)) was 2.15 (27.6) L./h and the CL/F ([2]; 270 mg MD Day 1, n = 8, geometric mean (CV %)) was 3.29 (26.4) L./h. For the same compound, the “Plasma C4h” value ([2]; 270 mg MD Day 8, 4 hours post-dose, total, geometric mean (CV %)) was “:5673 (34.2) ng/mL”, the CL/F ([2]; 270 mg MD Day 8, n = 7, geometric mean (CV %)) was 2.13 (25.9) L./h and the “increase of CSF concentration on doubling the dose” value ([2]; 270 mg vs 135 mg, day 8, 4 hours post-dose) was 1.7 fold. For the same compound, the “accumulation RCmax” value ([2]; MAD 135 mg) was 1.57, the “accumulation RAUC” value ([2]; MAD 270 mg dose) was 1.63 and the “accumulation RCmax” value ([2]; MAD 270 mg) was 1.69. The brain penetration ([2]; judged from CSF to plasma concentrations) was “limited”, the Kp at 4 h ([2]; 135 mg MD Day 8, geometric mean (CV %), read-out: CSF/Plasma) was 0.004 and the Kp at 4 h ([2]; 270 mg MD Day 8, geometric mean (CV %), read-out: CSF/Plasma) was 0.004. The Kp at 4 h ([2]; day 8, 4 hours post-dose, read-out: total concentrations in CSF as share of total plasma concentrations) was 0.004, the concentration at 4 h ([2]; CSF, 135 mg MD Day 8, 4 hours post-dose, total, geometric mean (CV %), read-out: CSF C4h) was 0.013 µg/mL and the concentration at 4 h ([2]; CSF, 270 mg MD Day 8, 4 hours post-dose, total, geometric mean (CV %), read-out: CSF C4h) was 0.022 µg/mL. For the same compound, the Tmax [2, 3] was 3.5 h, the Vd/F ([2]; plasma, 135 mg, 135 mg MD Day 1, n = 8, geometric mean (CV %)) was 111 L and the Cmax [2, 3] was 2.47 µg/mL. The Tmax [2, 4] was 2.75 h, the Vd/F ([2]; plasma, 135 mg, 135 mg MD Day 8, n = 8, geometric mean (CV %)) was 63.5 L and the Cmax [2, 4] was 4.15 µg/mL. For the same compound, the Tmax [2, 5] was 3.5 h, the Vd/F ([2]; plasma, 270 mg, 270 mg MD Day 1, n = 8, geometric mean (CV %)) was 103 L and the Cmax [2, 5] was 5.36 µg/mL. The Tmax [2, 6] was 2.5 h, the Vd/F ([2]; plasma, 270 mg, 270 mg MD Day 8, n = 7, geometric mean (CV %)) was 69.3 L and the Cmax [2, 6] was 8.03 µg/mL. The concentration at 4 h ([2]; plasma, 135 mg MD Day 8, 4 hours post-dose, total, geometric mean (CV %), read-out: Plasma C4h) was 3.6 µg/mL.
